In this assay the target is T1, human MR (Homo sapiens, UniProt P08235).
T1 construct: The full length human MR gene is cloned from a human kidney or human brain cDNA library; inferred from own knowledge of the pAcHLT vector (N); made in house; host or cells: Sf9 insect cells (baculovirus)
T1 sequence (P08235 1-984): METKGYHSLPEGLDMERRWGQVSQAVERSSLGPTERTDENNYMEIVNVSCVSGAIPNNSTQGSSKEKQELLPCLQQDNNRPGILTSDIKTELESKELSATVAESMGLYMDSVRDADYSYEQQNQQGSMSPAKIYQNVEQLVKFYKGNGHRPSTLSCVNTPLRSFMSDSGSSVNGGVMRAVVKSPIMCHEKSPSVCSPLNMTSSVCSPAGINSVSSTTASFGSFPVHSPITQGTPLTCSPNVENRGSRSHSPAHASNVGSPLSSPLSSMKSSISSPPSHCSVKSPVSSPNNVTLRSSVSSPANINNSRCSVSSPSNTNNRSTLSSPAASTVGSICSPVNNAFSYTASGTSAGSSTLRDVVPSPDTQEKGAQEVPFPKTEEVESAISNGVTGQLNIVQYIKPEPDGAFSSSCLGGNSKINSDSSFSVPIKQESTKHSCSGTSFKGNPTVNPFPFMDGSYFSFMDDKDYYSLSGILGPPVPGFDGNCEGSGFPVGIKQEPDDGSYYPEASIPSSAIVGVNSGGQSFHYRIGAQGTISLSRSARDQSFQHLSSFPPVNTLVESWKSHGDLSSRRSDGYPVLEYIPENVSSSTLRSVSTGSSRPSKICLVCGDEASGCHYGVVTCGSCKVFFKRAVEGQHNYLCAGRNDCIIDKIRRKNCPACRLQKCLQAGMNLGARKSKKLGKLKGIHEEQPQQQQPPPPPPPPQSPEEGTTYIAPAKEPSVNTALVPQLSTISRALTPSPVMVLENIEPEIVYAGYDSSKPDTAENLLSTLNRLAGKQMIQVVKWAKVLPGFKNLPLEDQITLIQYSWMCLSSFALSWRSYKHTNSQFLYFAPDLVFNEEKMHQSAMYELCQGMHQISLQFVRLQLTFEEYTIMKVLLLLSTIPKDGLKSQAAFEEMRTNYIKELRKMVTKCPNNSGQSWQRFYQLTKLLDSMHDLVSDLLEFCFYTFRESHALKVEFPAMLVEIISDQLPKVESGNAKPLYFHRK
In words: Mineralocorticoid Receptor Binding Assay (Method 1), [3H]-aldosterone competition. To be noted: 0.5 nM [3H]-aldosterone, human MR expressed in Sf9 cells. The method, then:
Mineralocorticoid Receptor Binding Assay (Method 1):
The full length human MR gene is cloned from a human kidney or human brain cDNA library. […] The PCR reaction is performed in a final volume of 50 μl containing about 1 μl of a 50× stock solution of polymerase; about 1 μl of a 50× stock solution of dNTP; about 5 μl of an appropriate PCR buffer; about 1 μl of each primer; about 5 μl of a H. kidney or H. brain cDNA library; and about 36 μl of water. The reaction is allowed to denature for about 30 seconds at 95 degrees Celsius, anneal for about 30 seconds at 55 degrees Celsius, and extend for about 5 minutes at 72 degrees Celsius, the sequence being repeated for a total of about 35 cycles. […] To extract the cDNA product from the agarose gel, the QIAEX II Gel Extraction protocol (QIAGEN, Inc.) is employed according to the manufacturer's instructions. Following extraction, the MR cDNA is cloned into an appropriate cloning vector (Zero Blunt TOPO PCR Cloning Kit (Invitrogen, Inc.) and a pAcHLT-baculovirus transfer vector (B.D./Pharminogen), then expressed in SF9 insect cells, essentially according to manufacturer's instructions. Sf9 cells are grown at a scale where gram quantity cell pellets are obtained for subsequent use in the MR binding assay. Harvested cell pellets are lysed by repeated freeze-thaw cycles (about 4) in a suitable lysis buffer then centrifuged at about 1×10^3 G (with the supernatant being saved for future assays).
MR binding assays are performed in a final total volume of about 250 μl containing about 20-25 μg of protein and 0.5 nM of [^3H]-aldosterone plus varying concentrations of test compound or vehicle. The assay binding buffer consists of 30 mM sodium molybdate, 30 mM of TRIS-HCl, 5 mM sodium phosphate, 5 mM sodium pyrophosphate, and about 10% glycerol, pH=7.5.
Incubations are carried out at 4 degrees Celsius with shaking for about 16 hours. 200 μl aliquots of each incubation are filtered onto Millipore HA 0.45 micron 96-well filter plates, pre-moistened with cold 30 mM TRIS-HCl. The filter plates are suctioned dry with vacuum and immediately washed 3× with cold 30 mM TRIS-HCl. The plates are then punched out and the amount of receptor-ligand complex is determined by liquid scintillation counting using 4 ml of Ready Protein Plus™ liquid scintillation cocktail.
The compound `COc1cc(C(C)(c2c[nH]c3c(NS(C)(=O)=O)cccc23)C2CC2)ccc1Cl` (centres unmarked) [Example 124, N-{3-[1-(4-Chloro-3-methoxy-phenyl)-1-cyclopropyl-ethyl]-1H-indol-7-yl}-methanesulfonamide] returned a Ki below 500 nM. Compound `CCC(CC)(c1ccc2cc(C)oc2c1)c1c[nH]c2c(NS(C)(=O)=O)cccc12` [Example 188] returned an inhibitory constant (Ki) below 500 nM.

Take `COc1ccc(C(C)(c2c[nH]c3c(NS(C)(=O)=O)cccc23)C2CC2)cc1F` (centres unmarked) [Example 123]: the Ki is below 500 nM.

`CCC(CC)(c1ccc2sc(NC(C)=O)nc2c1)c1c[nH]c2c(NS(C)(=O)=O)cccc12` [Example 196]: the inhibition constant (Ki) is below 500 nM. Under `C[C@](c1ccc2c(c1)OCCO2)(c1c[nH]c2c(NS(C)(=O)=O)cccc12)C1CC1` [Example 194] stands below 500 nM; under `CC(C)(c1ccccc1-c1ccccc1)c1c[nH]c2c(NS(C)(=O)=O)cccc12` [Example 34, N-[3-(1-Biphenyl-2-yl-1-methyl-ethyl)-1H-indol-7-yl]-methanesulfonamide], below 500 nM; under `CC(c1ccc(F)cc1)(c1c[nH]c2c(NS(C)(=O)=O)cccc12)C1CCC1` (centres unmarked) [Example 127, N-{3-[1-Cyclobutyl-1-(4-fluoro-phenyl)-ethyl]-1H-indol-7-yl}-methanesulfonamide], below 500 nM. Under `CCC(CC)(c1ccc2c(c1)nc(C)n2C)c1c[nH]c2c(NS(C)(=O)=O)cccc12` [Example 198] stands below 500 nM; under `COc1cc(C(C)(c2c[nH]c3c(NS(C)(=O)=O)cccc23)C2CC2)ccc1F` (centres unmarked) [Example 125, N-{3-[1-Cyclopropyl-1-(4-fluoro-3-methoxy-phenyl)-ethyl]-1H-indol-7-yl}-methanesulfonamide], below 500 nM. As for `CC(c1ccc2c(c1)OCCO2)(c1c[nH]c2c(NS(C)(=O)=O)cccc12)C1CC1` (centres unmarked) [Example 129, N-{3-[1-Cyclopropyl-1-(2,3-dihydro-benzo[1,4]dioxin-6-yl)-ethyl]-1H-indol-7-yl}-methanesulfonamide], the Ki is below 500 nM. Compound `CCS(=O)(=O)Nc1cccc2c([C@](C)(c3ccc(F)cc3F)C3CC3)c[nH]c12` (stereo in doubt) [Example 126, Ethanesulfonic acid {3-[1-cyclopropyl-1-(2,4-difluoro-phenyl)-ethyl]-1H-indol-7-yl}-amide] had a Ki below 500 nM. In turn, `CCC(CC)(c1ccc2ccn(C(C)=O)c2c1)c1c[nH]c2c(NS(C)(=O)=O)cccc12` [Example 183] gave an inhibition constant Ki below 500 nM. Under `CCC(CC)(c1ccc2c(c1)OCCO2)c1c[nH]c2c(NS(=O)(=O)CC)cccc12` [Example 133, N-{3-[1-(2,3-Dihydro-benzo[1,4]dioxin-6-yl)-1-ethyl-propyl]-1H-indol-7-yl}-ethanesulfonamide] stands below 500 nM; under `CCC(COC)(c1ccccc1)c1c[nH]c2c(NS(C)(=O)=O)cccc12` (centres unmarked) [Example 74, N-[3-(1-Methoxymethyl-1-phenyl-propyl)-1H-indol-7-yl]-methanesulfonamide], below 500 nM. Under `CCC(CC)(c1cccc2oc(C)cc12)c1c[nH]c2c(NS(C)(=O)=O)cccc12` [Example 184] stands below 500 nM. Regarding `CC(c1ccc2c(c1)OCO2)(c1c[nH]c2c(NS(C)(=O)=O)cccc12)C1CC1` (centres unmarked) [Example 131, N-[3-(1-Benzo[1,3]dioxol-5-yl-1-cyclopropyl-ethyl)-1H-indol-7-yl]-methanesulfonamide], the inhibition constant (Ki) is below 500 nM. Under `CCC(CC)(c1ccc2c(c1)OCCO2)c1c[nH]c2c(NS(C)(=O)=O)cccc12` [Example 128, N-{3-[1-(2,3-Dihydro-benzo[1,4]dioxin-6-yl)-1-ethyl-propyl]-1H-indol-7-yl}-methanesulfonamide] stands below 500 nM.

As a reminder, the Ki is a measure of affinity in units of concentration, obtained from inhibition or displacement. Low readings indicate a stronger hold on the target, high ones a looser hold on the target.

(Values after patent publication US20060235222A1, “Indole-derivative modulators of steroid hormone nuclear receptors” (ELI LILLY AND COMPANY, priority 2003, published 2006).)
